{"source": "patent US6214805A", "about": "“RNase L activators and antisense oligonucleotides effective to treat RSV infections” (priority 1997, dated 2001)", "key": {"RSV CH18537 (B)": {"test_system": "RSV CH18537 (B)", "experiment": "Neutral red uptake assay in HEp-2 cells, RSV strain CH18537", "assay_type": "cell-based, Respiratory syncytial virus", "conditions": "Table 12, neutral red", "protocol": "(§1) This assay was performed by a modified method as described by Cavenaugh et al. (Cavenaugh et al. 1990, Invest. New Drugs 8:347-354). Briefly, medium was removed from each well of a plate scored for CPE from a CPE inhibition assay, 0.2 ml of neutral red (0.034% in PSS) was added to each of the wells of that plate and the plate incubated for 2 hr at 37° C. in the dark. The neutral red solution was removed from the wells and the wells rinsed twice with PBS (pH 7.4). Equal volumes (0.1 ml) of absolute ethanol and Sorenson citrate buffer (0.1 M sodium citrate, 0.1 M HCI, pH 4.2) were mixed together and added to each well. Plates were incubated in the dark for 30 min. at room temperature to solubilize the dye. The plates were then gently mixed on a 96-well plate adapted vortexer for 1 min. Absorbances at 540 nm and 450 nm were read with a microplate reader (Bio-Tek EL 1309; Bio-Tek Instruments, Inc. Winooski, Vt.). Absorbance values were expressed as percents of untreated controls and EC50 and IC50 values were calculated by regression analysis.\n(§2) In this series, MP351 was added once a day for two days with fresh medium"}, "Hep-2 Cells [1]": {"test_system": "Hep-2 Cells", "experiment": "Cytotoxicity to Hep-2 cells (visual and dye uptake, rapidly dividing cells)", "assay_type": "cell-based, human", "conditions": "Homo sapiens", "excerpt": "(§3) A comparison of the efficacies of spA4 -antiRSV3'3'T/(8281-8299) treatment and conventional ribarvirin treatment can be obtained by determining the RSV-inhibitory concentration and the cytotoxic concentration of each compound. Cultures of the human laryngeal carcinoma cell line HEp-2 and the […] renal cell line MA-104 were established and infected with an MOI=0.005. Cultures were fed twice daily. Treatment with either ribavirin or spA4 -antiRSV3'3'T/(8281-8299) was begun simultaneously with infection and continued for four days. Treatment was then withdrawn and the test read on day 5. The effects of treatment on RSV infection were reported as 1) an EC50, the concentration at which there was a 50% reduction in the observable cytopathic effects of infection and 2) an EC90, the concentration at which there was a 90% reduction in viral production. […] Therapeutic efficacy is estimated by the Selectivity Index, which is the ratio of IC50 /EC50.\nIC50 50% inhibitory concentration for cytotoxicity to cells (visual"}, "RSV strain A2 [2]": {"test_system": "RSV strain A2", "experiment": "Antiviral activity in MA-104 cells, visual CPE", "assay_type": "cell-based, Respiratory syncytial virus", "excerpt": "as §3\nas determined with RSV strain A2, MOI = 0.005\n(§4) Fresh medium and oligo or ribavirin added twice daily for 4 d and test read\n(§5) EC50 effective concentration to reduce RSV-induced CPE by 50%."}, "RSV strain A2 [3]": {"test_system": "RSV strain A2", "experiment": "Neutral red uptake assay of CPE inhibition in HEp-2 cells", "assay_type": "cell-based, Respiratory syncytial virus", "conditions": "for EC50: human respiratory syncytial virus", "protocol": "as §1"}, "Hep-2 Cells [4]": {"test_system": "Hep-2 Cells", "experiment": "Cytotoxicity by morphological changes in HEp-2 cells (CPE inhibition assay)", "assay_type": "cell-based, human", "conditions": "Homo sapiens", "protocol": "(§6) Embryonic African green monkey kidney cells (MA-104) were obtained from BioWhittaker, Inc. (Walkersville, Md.). HEp-2 cells were propagated from a human epidermoid carcinoma of the larynx (American Type Culture Collection, ATCC; Rockville, Md.). The cells were grown in minimal essential medium. (MEM, Gibco-BRL, Gaitherburg, Md.) supplemented with 0.1% NaHCO3 and 10% fetal bovine serum (FBS, Hyclone Laboratories, Logan Utah.). When performing antiviral assays, serum was reduced to 2% and 50 μg/ml gentamicin (Sigma Chemical Company, St. Louis, Mo.) was added to the medium.\nMorphological changes due to compound cytotoxicity were graded on a scale of 0-5; grade 5 was defined as 100% cytotoxicity. The 50% cytotoxic dose (IC50 was calculated by regression analysis. A selective index (S.I.) was calculated for each compound [S.I.=(IC50)/(EC50 ]."}, "Hep-2 Cells [5]": {"test_system": "Hep-2 Cells", "experiment": "Neutral red uptake assay of cytotoxicity in HEp-2 cells", "assay_type": "cell-based, human", "conditions": "Homo sapiens", "protocol": "as §6, §1"}, "RSV strain A2 [6]": {"test_system": "RSV strain A2", "experiment": "Antiviral activity in Hep-2 cells, neutral red (reduction of RSV-induced CPE)", "assay_type": "cell-based, Respiratory syncytial virus", "excerpt": "as §3\ndetermined with RSV strain A2, MOI = 0.005\nas §4, §5"}, "[7]": {"conditions": "in vivo; cited from earlier work"}, "[8]": {"test_system": "RSV 393 (clinical isolate)", "experiment": "Neutral red uptake assay in HEp-2 cells, RSV 393", "assay_type": "cell-based, Respiratory syncytial virus", "conditions": "Table 12, neutral red", "protocol": "as §1, §2"}, "[9]": {"conditions": "human respiratory syncytial virus, 48 h, once a day for two days"}, "[10]": {"conditions": "HEp-2, 24 h, Table 11, neutral red, q.d. 1 day (added along with virus, never replenished), HEp2"}, "[11]": {"conditions": "HEp-2, 48 h, Table 11, neutral red, B.I.D. 2 days, HEp2"}}, "data": [{"smiles": "NC(=O)c1ncn([C@@H]2O[C@H](CO)[C@@H](O)[C@H]2O)n1", "note": "[Ribavirin]", "values": [{"measurement": "SI", "setting": "RSV CH18537 (B)", "result": 19}, {"measurement": "EC50", "setting": "RSV CH18537 (B); [9]", "result": 12, "unit": "µM"}, {"measurement": "IC50", "setting": "Hep-2 Cells [1]", "result": 41, "unit": "µM"}, {"measurement": "SI selectivity index = IC50/EC50", "setting": "RSV strain A2 [2]", "result": 210}, {"measurement": "EC50", "setting": "RSV strain A2 [2]; human respiratory syncytial virus, MA104, 96 h, visual CPE, MOI = 0.005, added twice daily for 4 d, read on d 5", "result": 1, "unit": "µM"}, {"measurement": "SI selectivity index = IC50/EC50", "setting": "RSV strain A2 [2]; listed as ribavirin", "result": "about 200"}, {"measurement": "SI", "setting": "RSV strain A2 [3]; Table 11, neutral red, B.I.D. 2 days, HEp2", "result": 130}, {"measurement": "SI", "setting": "RSV strain A2 [3]; Table 11, neutral red, B.I.D. 3 days, HEp2", "result": "> 175"}, {"measurement": "SI", "setting": "RSV strain A2 [3]; Table 11, neutral red, B.I.D. 4 days, HEp2", "result": 75}, {"measurement": "SI", "setting": "RSV strain A2 [3]; Table 11, neutral red, q.d. 1 day (added along with virus, never replenished), HEp2", "result": "> 120"}, {"measurement": "SI", "setting": "RSV strain A2 [3]; Table 11, neutral red, q.d. 3 days, HEp2", "result": 126}, {"measurement": "SI", "setting": "RSV strain A2 [3]; Table 11, neutral red, q.d. 4 days, HEp2", "result": 36}, {"measurement": "SI", "setting": "RSV strain A2 [3]; Table 13, neutral red, q.d., Day 0, HEp-2", "result": 27}, {"measurement": "SI", "setting": "RSV strain A2 [3]; Table 13, neutral red, q.d., Day 1, HEp-2", "result": 28}, {"measurement": "SI", "setting": "RSV strain A2 [3]; Table 13, neutral red, q.d., Day 2, HEp-2", "result": 80}, {"measurement": "EC50", "setting": "RSV strain A2 [3]; HEp-2, 0 h, Table 13, neutral red, q.d., Day 0 (added immediately after virus exposure), HEp-2", "result": 12, "unit": "µM"}, {"measurement": "EC50", "setting": "RSV strain A2 [3]; [10]", "result": 4, "unit": "µM"}, {"measurement": "EC50", "setting": "RSV strain A2 [3]; HEp-2, 24 h, Table 13, neutral red, q.d., fresh compound up to Day 1 post infection, HEp-2", "result": 40, "unit": "µM"}, {"measurement": "EC50", "setting": "RSV strain A2 [3]; [11]", "result": 8, "unit": "µM"}, {"measurement": "EC50", "setting": "RSV strain A2 [3]; HEp-2, 48 h, Table 13, neutral red, q.d., fresh compound up to Day 2 post infection, HEp-2, read-out: EC50", "result": 4, "unit": "µM"}, {"measurement": "EC50", "setting": "RSV strain A2 [3]; HEp-2, 72 h, Table 11, neutral red, B.I.D. 3 days, HEp2, read-out: EC50", "result": "< 4", "unit": "µM"}, {"measurement": "EC50", "setting": "RSV strain A2 [3]; HEp-2, 72 h, Table 11, neutral red, q.d. 3 days, HEp2, read-out: EC50", "result": 8, "unit": "µM"}, {"measurement": "EC50", "setting": "RSV strain A2 [3]; HEp-2, 96 h, Table 11, neutral red, B.I.D. 4 days, HEp2, read-out: EC50", "result": 8, "unit": "µM"}, {"measurement": "EC50", "setting": "RSV strain A2 [3]; HEp-2, 96 h, Table 11, neutral red, q.d. 4 days, HEp2, read-out: EC50", "result": 20, "unit": "µM"}, {"measurement": "IC50", "setting": "Hep-2 Cells [4]; HEp-2, 0 h, Table 13, CPE, q.d., Day 0, HEp-2", "result": 240, "unit": "µM"}, {"measurement": "IC50", "setting": "Hep-2 Cells [4]; HEp-2, 24 h, Table 10, CPE, q.d. 1 day (added along with virus, never replenished), HEp2", "result": 230, "unit": "µM"}, {"measurement": "IC50", "setting": "Hep-2 Cells [4]; HEp-2, 24 h, Table 13, CPE, q.d., Day 1, HEp-2", "result": 320, "unit": "µM"}, {"measurement": "IC50", "setting": "Hep-2 Cells [4]; HEp-2, 48 h, Table 10, CPE, B.I.D. 2 days, HEp2", "result": 230, "unit": "µM"}, {"measurement": "IC50", "setting": "Hep-2 Cells [4]; HEp-2, 48 h, Table 13, CPE, q.d., Day 2, HEp-2", "result": 320, "unit": "µM"}, {"measurement": "IC50", "setting": "Hep-2 Cells [4]; HEp-2, 72 h, Table 10, CPE, B.I.D. 3 days, HEp2", "result": 720, "unit": "µM"}, {"measurement": "IC50", "setting": "Hep-2 Cells [4]; HEp-2, 72 h, Table 10, CPE, q.d. 3 days, HEp2", "result": 230, "unit": "µM"}, {"measurement": "IC50", "setting": "Hep-2 Cells [4]; HEp-2, 96 h, Table 10, CPE, B.I.D. 4 days, HEp2", "result": 230, "unit": "µM"}, {"measurement": "IC50", "setting": "Hep-2 Cells [4]; HEp-2, 96 h, Table 10, CPE, q.d. 4 days, HEp2", "result": 230, "unit": "µM"}, {"measurement": "IC50", "setting": "Hep-2 Cells [4]; HEp-2, Table 12, CPE, test with 393 (clinical isolate), HEp-2", "result": 96, "unit": "µM"}, {"measurement": "IC50", "setting": "Hep-2 Cells [4]; HEp-2, Table 12, CPE, test with CH18537 (B), HEp-2", "result": 208, "unit": "µM"}, {"measurement": "IC50", "setting": "Hep-2 Cells [4]; HEp-2, Table 12, CPE, test with Long (A), HEp-2", "result": 205, "unit": "µM"}, {"measurement": "IC50", "setting": "Hep-2 Cells [5]; HEp-2, 0 h, Table 13, neutral red, q.d., Day 0, HEp-2", "result": 328, "unit": "µM"}, {"measurement": "IC50", "setting": "Hep-2 Cells [5]; [10]", "result": 480, "unit": "µM"}, {"measurement": "IC50", "setting": "Hep-2 Cells [5]; HEp-2, 24 h, Table 13, neutral red, q.d., Day 1, HEp-2", "result": 1130, "unit": "µM"}, {"measurement": "IC50", "setting": "Hep-2 Cells [5]; [11]", "result": 1050, "unit": "µM"}, {"measurement": "IC50", "setting": "Hep-2 Cells [5]; HEp-2, 48 h, Table 13, neutral red, q.d., Day 2, HEp-2", "result": 320, "unit": "µM"}, {"measurement": "IC50", "setting": "Hep-2 Cells [5]; HEp-2, 72 h, Table 11, neutral red, B.I.D. 3 days, HEp2", "result": 700, "unit": "µM"}, {"measurement": "IC50", "setting": "Hep-2 Cells [5]; HEp-2, 72 h, Table 11, neutral red, q.d. 3 days, HEp2", "result": 1010, "unit": "µM"}, {"measurement": "IC50", "setting": "Hep-2 Cells [5]; HEp-2, 96 h, Table 11, neutral red, B.I.D. 4 days, HEp2", "result": 600, "unit": "µM"}, {"measurement": "IC50", "setting": "Hep-2 Cells [5]; HEp-2, 96 h, Table 11, neutral red, q.d. 4 days, HEp2", "result": 730, "unit": "µM"}, {"measurement": "IC50", "setting": "Hep-2 Cells [5]; HEp-2, Table 12, neutral red, test with 393 (clinical isolate), HEp-2", "result": 96, "unit": "µM"}, {"measurement": "IC50", "setting": "Hep-2 Cells [5]; HEp-2, Table 12, neutral red, test with CH18537 (B), HEp-2", "result": 233, "unit": "µM"}, {"measurement": "IC50", "setting": "Hep-2 Cells [5]; HEp-2, Table 12, neutral red, test with Long (A), HEp-2", "result": 280, "unit": "µM"}, {"measurement": "SI selectivity index = IC50/EC50", "setting": "RSV strain A2 [6]", "result": 10}, {"measurement": "EC50", "setting": "RSV strain A2 [6]; human respiratory syncytial virus, 96 h, neutral red, MOI = 0.005, added twice daily for 4 d, read on d 5", "result": 4, "unit": "µM"}, {"measurement": "half-life", "setting": "[7]", "result": 40, "unit": "days"}, {"measurement": "SI", "setting": "[8]", "result": 24}, {"measurement": "EC50", "setting": "[8]; [9]", "result": 4, "unit": "µM"}]}]}
